In publication PMC9668969 (Nature Communications, 2022):
Several values for one entry are separate records, joined by “and”; a condition that tells them apart may be missing. Equal values may be shown once.

How the values were obtained:
[1] = system: WT ELIC; assay: Asymmetric liposome stopped-flow Tl+ flux assay (no exchange vs exchange, 25 mol% outer leaflet POPG); type: biochemical, Erwinia chrysanthemi; design: key to Tl+ flux quenching rate, Avg. / Tl+ flux quenching rate: Tl+ influx rate kt at 2 ms from stretched-exponential fit (Eq. 2b); conditions: for Tl+ flux quenching rate, Avg. / Tl+ flux quenching rate: No-exchange: WT in 3:1 PC:PE with just beta-CD, 10 mM propylamine; for Tl+ flux quenching rate: single experiments
Procedure: The fluorescence sequential-mixing stopped-flow liposomal flux measurements were carried using an SX20 stopped-flow spectrofluorometer (Applied Photophysics) and Pro-Data SX software[13],[30]. 7.5 mg of the respective lipid mixture (POPC, 1:1 POPC: POPE, 1:1 POPC:POPG, 3:1 POPC:POPE, 3:1 POPC:POPG, 2:1:1 POPC:POPE:POPG) was dried in a glass vial to a thin film under a constant stream of N2. The lipids were then further dried under vacuum in a desiccator overnight. The following day the lipids were hydrated in 500 µl of reconstitution buffer (100 mM NaNO3, 10 mM HEPES, pH 7) (Buffer R), 250 µl of 75 mM 8-Aminonaphthalene-1,3,6-Trisulfonic Acid (ANTS, ThermoFisher Scientific) in buffer R, and doped with ~18 mg of CHAPS (Anatrace). The mixture was vortexed and then sonicated with heat until completely solubilized. Following the sonication, the solution was brought to RT then 3.5 µl of 6.7 mg/ml ELIC in Buffer A with 0.02% DDM was added (3 µg per mg of lipid). This combined solution was incubated at RT for 30 min, followed by the addition of 1 ml of 1:1 v/v SM-2 BioBeads in Buffer R and an additional 250 µl of 75 mM ANTS in Buffer R. This mixture was incubated at RT for 2.5 hr with gentle mixing. The liposome suspension was then extruded with an Avanti mini-extruder and 0.1 µm membrane (30×). The extruded liposomes were stored at 13 °C overnight with gentle rotation. The next day, the liposomes were diluted to 2.5 mL using assay buffer (140 mM NaNO3, 10 mM HEPES, pH 7) (Stopped-flow Buffer A), loaded into a PD-10 desalting column (Cytiva), eluted with 3 mL of Stopped-flow Buffer A and subsequently diluted 5-fold with Stopped-flow Buffer A.
Using propylamine as the agonist, the assay and analysis was carried out as previously described[13],[30]. ELIC-containing liposomes were first mixed 1:1 with Buffer A containing 2× the concentration of propylamine. After a variable delay of 10 ms to 25 s, the sample was then mixed 1:1 with a quenching buffer (90 mM NaNO3, 50 mM TlNO3, 10 mM HEPES, pH 7), and ANTS fluorescence (ex. 360 nm, fluorescence above 420 nm) was recorded for 1 s. For each delay time, 5 repeat measurements were obtained. The data were collected using Applied Photophysics Pro-Data SX software. The fluorescence quenching traces were fit to a stretched exponential (Eq. 2a) and the rate of Tl^+ influx was determined at 2 ms (Eq. 2b).2a Ft=F∞+F0−F∞⋅e^−t/τ^β 2b kt=β/τ⋅2ms/τ^(β−1) where Ft, F∞, F0 are the fluorescence at time t, final fluorescence and initial fluorescence. τ is the time constant, β the stretched exponential factor, and kt the calculated rate of Tl^+ influx at 2 ms. The time course of desensitization was also fit to a double exponential and a weighted time constant was calculated as was done for the patch-clamp data using Origin 2019b. All replicates were taken from independent samples.
Acceptor liposomes were prepared as described in the Stopped-flow fluorescence recordings section until completion of the extrusion step. The preparation was scaled up 2x to produce samples for the no-exchange and exchange conditions. After extrusion and storage of the liposomes overnight at 13 °C, the double liposome preparation was split into two equal volume aliquots of ~1.5 ml. Using the excel spreadsheet provided by Markones et al.[44], donor POPG and methyl-β-cyclodextrin (MβCD, Sigma) concentrations and volumes were calculated to produce an outer leaflet POPG content of 25 mol% in the liposomes. The calculations assumed a ~6.66 mM lipid concentration and 1.5 mL volume of the acceptor liposome solution[44]. A MβCD-POPG (50% saturation of MβCD by POPG) solution was formed by combining 224 µL 7.5 mM POPG in Stopped-flow Buffer A, 650 µl 300 mM MβCD in Stopped-flow Buffer A, and 126 µL Stopped-flow Buffer A, which was then mixed at 50 °C and 1000 RPM for 20 min using an Eppendorf thermomixer. […]

[2] = system: ELIC; conditions: cited from earlier work

## methyl-β-cyclodextrin
[1]; delay 0.01 s
  Tl+ flux quenching rate, Avg.: 12.9647
[1]; delay 0.025 s
  Tl+ flux quenching rate, Avg.: 13.7625
  Tl+ flux quenching rate: 9.097 and 18.0228 and 11.9906 and 15.9401
[1]; delay 0.05 s
  Tl+ flux quenching rate, Avg.: 18.86
[1]; delay 0.1 s
  Tl+ flux quenching rate, Avg.: 31.5581
[1]; delay 0.25 s
  Tl+ flux quenching rate, Avg.: 29.5756
  Tl+ flux quenching rate: 35.4461 and 38.8846 and 20.2406 and 23.7309
[1]; delay 0.5 s
  Tl+ flux quenching rate, Avg.: 31.8845
[1]; delay 1 s
  Tl+ flux quenching rate, Avg.: 34.9406
[1]; delay 2.5 s
  Tl+ flux quenching rate, Avg.: 21.2322
  Tl+ flux quenching rate: 25.1548 and 26.3221 and 15.7795 and 17.6721
[1]; delay 5 s
  Tl+ flux quenching rate, Avg.: 10.788
  Tl+ flux quenching rate: 10.4577 and 9.241 and 15.1687 and 8.284
[1]; delay 10 s
  Tl+ flux quenching rate, Avg.: 2.374
[1]; delay 25 s
  Tl+ flux quenching rate, Avg.: 1.305
[1]; methyl-β-cyclodextrin alone, 3:1 POPC:POPE liposomes
  effect on ELIC responses: did not alter ELIC responses

## cardiolipin
[2]
  effect on ELIC: positively modulates ELIC

## CC/C=C\C/C=C\C/C=C\C/C=C\C/C=C\C/C=C\CCC(=O)O [DHA, docosahexaenoic acid]
[2]
  effect on ELIC agonist response: decreases peak agonist response and increases desensitization
